Results published in ChEMBL document CHEMBL4602617, “Discovery and optimization of heteroaryl piperazines as potent and selective PI3Kδ inhibitors” (Bioorg Med Chem Lett, 2020).
pIC50: −log10 of the molar value.

What was measured:
[1] = target: Protein kinase C beta type (Homo sapiens, UniProt P05771); experiment: Inhibition of recombinant full length human GST-tagged PKCbeta1 expressed in insect expression system using serine/threonine-7 peptide as substrate incubated for 60 mins in presence of ATP by Z'-LYTE assay
[2] = target: Serine/threonine-protein kinase PLK1 (Homo sapiens, UniProt P53350); experiment: Inhibition of recombinant full length human His-tagged PLK1 expressed in baculovirus expression system using serine/threonine-16 peptide as substrate incubated for 60 mins in presence of ATP by Z'-LYTE assay
Serine/threonine-protein kinase PLK1, sequence (P53350 whole entry, the tested form may be a part): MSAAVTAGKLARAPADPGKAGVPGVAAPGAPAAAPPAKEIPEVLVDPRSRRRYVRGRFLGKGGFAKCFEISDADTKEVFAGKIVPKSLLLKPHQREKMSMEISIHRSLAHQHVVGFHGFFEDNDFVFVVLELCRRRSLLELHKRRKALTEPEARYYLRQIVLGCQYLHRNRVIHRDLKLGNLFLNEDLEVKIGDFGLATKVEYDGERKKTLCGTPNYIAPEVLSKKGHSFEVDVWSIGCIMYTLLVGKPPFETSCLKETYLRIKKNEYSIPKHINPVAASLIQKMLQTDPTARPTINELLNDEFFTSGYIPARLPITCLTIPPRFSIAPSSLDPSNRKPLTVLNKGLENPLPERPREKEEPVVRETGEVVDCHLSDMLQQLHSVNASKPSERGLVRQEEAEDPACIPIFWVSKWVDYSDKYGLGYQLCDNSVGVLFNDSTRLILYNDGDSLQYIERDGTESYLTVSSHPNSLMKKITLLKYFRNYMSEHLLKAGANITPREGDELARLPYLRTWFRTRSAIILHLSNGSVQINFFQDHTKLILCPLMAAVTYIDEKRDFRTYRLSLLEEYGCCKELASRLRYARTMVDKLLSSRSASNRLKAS

[3] = target: Dual specificity protein kinase CLK2 (Homo sapiens, UniProt P49760); experiment: Inhibition of recombinant human GST-tagged CLK2 catalytic domain (137 to 498 residues) expressed in baculovirus expression system using serine/threonine-6 peptide as substrate incubated for 60 mins in presence of ATP by Z'-LYTE assay
[4] = target: Leucine-rich repeat serine/threonine-protein kinase 2 (Homo sapiens, UniProt Q5S007); experiment: Inhibition of recombinant human GST-tagged LRRK2 catalytic domain (970 to 2527 amino acids) expressed in baculovirus expression system using ERM (LRRKtide) peptide as substrate incubated for 60 mins in presence of ATP by Adapta assay
Leucine-rich repeat serine/threonine-protein kinase 2, sequence (Q5S007 whole entry, the tested form may be a part): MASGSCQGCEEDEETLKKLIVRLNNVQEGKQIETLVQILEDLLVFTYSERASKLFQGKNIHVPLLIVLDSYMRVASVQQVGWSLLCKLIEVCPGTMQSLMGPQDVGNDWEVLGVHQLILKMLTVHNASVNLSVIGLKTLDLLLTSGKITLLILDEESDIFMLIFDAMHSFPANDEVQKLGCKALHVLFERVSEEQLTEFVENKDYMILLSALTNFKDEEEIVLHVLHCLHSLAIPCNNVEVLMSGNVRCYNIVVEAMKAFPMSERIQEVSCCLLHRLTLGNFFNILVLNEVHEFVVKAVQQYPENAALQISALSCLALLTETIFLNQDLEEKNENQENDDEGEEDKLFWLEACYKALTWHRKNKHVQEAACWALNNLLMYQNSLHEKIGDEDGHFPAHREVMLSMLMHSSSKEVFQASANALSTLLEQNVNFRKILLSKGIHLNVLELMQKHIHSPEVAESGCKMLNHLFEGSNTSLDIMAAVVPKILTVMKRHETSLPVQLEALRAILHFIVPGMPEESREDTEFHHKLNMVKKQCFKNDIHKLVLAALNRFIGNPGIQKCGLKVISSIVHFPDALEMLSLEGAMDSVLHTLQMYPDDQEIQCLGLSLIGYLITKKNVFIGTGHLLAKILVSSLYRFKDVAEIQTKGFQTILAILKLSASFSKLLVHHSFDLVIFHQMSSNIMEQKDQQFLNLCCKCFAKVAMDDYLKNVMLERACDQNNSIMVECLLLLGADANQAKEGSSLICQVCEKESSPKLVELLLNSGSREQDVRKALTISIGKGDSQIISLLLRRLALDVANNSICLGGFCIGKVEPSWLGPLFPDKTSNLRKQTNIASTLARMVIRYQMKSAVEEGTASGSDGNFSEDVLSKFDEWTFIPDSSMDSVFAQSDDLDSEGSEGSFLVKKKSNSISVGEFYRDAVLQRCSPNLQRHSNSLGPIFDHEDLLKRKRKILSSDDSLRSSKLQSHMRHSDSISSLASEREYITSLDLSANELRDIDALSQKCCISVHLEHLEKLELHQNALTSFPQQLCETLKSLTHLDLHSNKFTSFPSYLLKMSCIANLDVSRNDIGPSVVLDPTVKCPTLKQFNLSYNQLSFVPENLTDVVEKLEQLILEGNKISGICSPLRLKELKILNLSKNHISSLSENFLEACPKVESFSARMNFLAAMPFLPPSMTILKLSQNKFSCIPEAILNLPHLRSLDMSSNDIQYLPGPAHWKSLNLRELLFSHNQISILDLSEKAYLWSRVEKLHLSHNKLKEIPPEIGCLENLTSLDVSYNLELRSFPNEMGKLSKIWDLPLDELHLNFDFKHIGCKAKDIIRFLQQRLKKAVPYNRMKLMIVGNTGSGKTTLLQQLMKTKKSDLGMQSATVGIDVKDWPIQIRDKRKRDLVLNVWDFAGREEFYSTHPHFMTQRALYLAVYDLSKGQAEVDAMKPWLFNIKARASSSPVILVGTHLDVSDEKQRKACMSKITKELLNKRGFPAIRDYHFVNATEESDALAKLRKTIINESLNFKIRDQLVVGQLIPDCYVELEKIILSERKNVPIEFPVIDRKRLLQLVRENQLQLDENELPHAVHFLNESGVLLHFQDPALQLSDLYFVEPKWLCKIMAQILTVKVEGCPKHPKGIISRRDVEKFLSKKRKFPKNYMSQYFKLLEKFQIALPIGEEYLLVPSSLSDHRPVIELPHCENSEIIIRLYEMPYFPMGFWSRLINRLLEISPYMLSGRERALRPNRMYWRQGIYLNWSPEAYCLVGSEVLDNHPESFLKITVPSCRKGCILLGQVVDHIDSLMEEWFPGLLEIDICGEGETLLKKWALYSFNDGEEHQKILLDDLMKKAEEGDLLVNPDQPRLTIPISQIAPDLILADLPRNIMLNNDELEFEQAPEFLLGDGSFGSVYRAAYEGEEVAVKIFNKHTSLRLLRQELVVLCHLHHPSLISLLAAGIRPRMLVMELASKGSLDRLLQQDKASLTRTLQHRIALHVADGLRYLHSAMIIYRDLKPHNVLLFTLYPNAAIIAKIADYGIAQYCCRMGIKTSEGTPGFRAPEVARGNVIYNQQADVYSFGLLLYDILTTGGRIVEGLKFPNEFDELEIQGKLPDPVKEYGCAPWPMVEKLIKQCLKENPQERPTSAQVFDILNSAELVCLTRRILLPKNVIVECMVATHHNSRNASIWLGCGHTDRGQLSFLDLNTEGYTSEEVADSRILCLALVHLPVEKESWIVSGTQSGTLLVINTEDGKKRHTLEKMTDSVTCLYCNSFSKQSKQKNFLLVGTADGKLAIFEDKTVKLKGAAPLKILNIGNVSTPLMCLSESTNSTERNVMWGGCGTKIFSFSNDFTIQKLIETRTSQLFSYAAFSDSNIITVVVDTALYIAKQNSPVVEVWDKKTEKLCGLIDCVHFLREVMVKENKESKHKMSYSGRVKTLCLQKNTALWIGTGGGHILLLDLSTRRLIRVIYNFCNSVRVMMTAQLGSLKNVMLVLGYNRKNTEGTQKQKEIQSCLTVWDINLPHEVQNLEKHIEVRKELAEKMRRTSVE

Ephrin type-A receptor 8 = Ephrin type-A receptor 8 (Homo sapiens, UniProt P29322); experiment: Inhibition of recombinant human GST-tagged EPHA8 catalytic domain (565 to 1005 residues) expressed in baculovirus expression system using tyrosine-2 peptide as substrate incubated for 60 mins in presence of ATP by Z'-LYTE assay
[5] = target: Serine/threonine-protein kinase PAK 2 (Homo sapiens, UniProt Q13177); experiment: Inhibition of recombinant full length human GST-tagged PAK2 expressed in baculovirus expression system using serine/threonine-20 peptide as substrate incubated for 60 mins in presence of ATP by Z'-LYTE assay
Serine/threonine-protein kinase PAK 2, sequence (Q13177 whole entry): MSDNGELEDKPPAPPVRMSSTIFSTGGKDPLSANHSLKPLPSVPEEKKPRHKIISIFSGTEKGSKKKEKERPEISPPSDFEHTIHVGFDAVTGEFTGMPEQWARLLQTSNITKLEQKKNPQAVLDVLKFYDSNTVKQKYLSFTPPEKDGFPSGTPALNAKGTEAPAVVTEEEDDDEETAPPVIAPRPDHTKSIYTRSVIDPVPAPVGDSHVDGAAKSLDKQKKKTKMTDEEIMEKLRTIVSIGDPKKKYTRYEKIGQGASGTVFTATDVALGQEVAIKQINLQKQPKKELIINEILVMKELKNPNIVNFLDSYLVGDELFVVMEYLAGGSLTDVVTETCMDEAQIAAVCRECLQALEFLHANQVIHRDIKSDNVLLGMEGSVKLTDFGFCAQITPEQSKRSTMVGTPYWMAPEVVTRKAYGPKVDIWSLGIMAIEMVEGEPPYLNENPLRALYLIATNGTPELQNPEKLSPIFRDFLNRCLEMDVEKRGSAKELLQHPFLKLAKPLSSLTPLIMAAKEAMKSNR

[6] = target: 3-phosphoinositide-dependent protein kinase 1 (Homo sapiens, UniProt O15530); experiment: Inhibition of full length recombinant His-tagged human PDK1 expressed in baculovirus expression system using Ser/Thr 07 as substrate after 1 hr in presence of ATP by Z'LYTE assay
3-phosphoinositide-dependent protein kinase 1, sequence (O15530 whole entry, canonical isoform): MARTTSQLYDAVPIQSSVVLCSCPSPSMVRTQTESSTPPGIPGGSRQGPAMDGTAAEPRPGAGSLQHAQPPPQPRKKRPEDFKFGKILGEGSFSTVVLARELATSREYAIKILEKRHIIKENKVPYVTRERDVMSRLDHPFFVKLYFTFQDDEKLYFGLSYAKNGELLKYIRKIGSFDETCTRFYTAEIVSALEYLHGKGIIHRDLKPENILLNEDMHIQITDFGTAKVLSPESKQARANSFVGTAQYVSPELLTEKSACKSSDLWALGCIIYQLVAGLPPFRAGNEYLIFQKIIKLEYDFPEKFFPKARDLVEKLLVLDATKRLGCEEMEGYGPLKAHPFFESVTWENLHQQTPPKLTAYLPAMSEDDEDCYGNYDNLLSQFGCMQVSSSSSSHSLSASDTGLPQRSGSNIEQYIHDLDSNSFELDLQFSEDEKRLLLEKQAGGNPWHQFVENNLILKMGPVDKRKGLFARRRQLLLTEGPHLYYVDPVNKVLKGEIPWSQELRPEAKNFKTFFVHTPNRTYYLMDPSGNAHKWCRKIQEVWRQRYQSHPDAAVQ

[7] = target: Casein kinase I isoform epsilon (Homo sapiens, UniProt P49674); experiment: Inhibition of recombinant human full-length GST-tagged CSNK1E expressed in insect cells using FRET-labeled Ser/Thr 11 peptide as substrate measured after 1 hr in presence of ATP by Z'-lyte assay
[8] = target: Alpha-2B adrenergic receptor (Homo sapiens) (UniProt P18089); experiment: Displacement of [3H]rauwolscine from full-length recombinant human alpha2B receptor expressed in CHOK1 cells at 10 uM measured after 60 mins by scintillation counting method relative to control; format: cell-based; conditions: CHO-K1
Alpha-2B adrenergic receptor (Homo sapiens), sequence (P18089 whole entry): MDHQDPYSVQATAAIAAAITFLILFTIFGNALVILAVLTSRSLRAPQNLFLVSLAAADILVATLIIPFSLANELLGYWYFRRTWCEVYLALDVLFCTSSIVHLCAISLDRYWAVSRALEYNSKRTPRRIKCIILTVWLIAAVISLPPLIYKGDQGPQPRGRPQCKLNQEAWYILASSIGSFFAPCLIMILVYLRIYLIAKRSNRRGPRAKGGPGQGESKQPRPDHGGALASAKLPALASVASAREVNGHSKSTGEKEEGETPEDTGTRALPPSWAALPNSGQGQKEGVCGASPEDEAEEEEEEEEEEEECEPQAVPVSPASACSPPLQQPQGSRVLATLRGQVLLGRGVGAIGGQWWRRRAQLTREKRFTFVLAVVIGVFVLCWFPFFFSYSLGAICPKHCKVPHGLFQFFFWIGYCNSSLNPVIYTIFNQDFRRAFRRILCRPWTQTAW

[9] = target: 5-hydroxytryptamine receptor 2B (Homo sapiens) (UniProt P41595); experiment: Displacement of [3H]lysergic acid diethylamide from full length human recombinant 5HT2B receptor expressed in CHOK-1 cells at 10 uM measured after 60 mins by radiometric scintillation analysis relative to control; format: cell-based
[10] = target: Ribosomal protein S6 kinase alpha-2 (Homo sapiens, UniProt Q15349); experiment: Inhibition of recombinant full length human GST-tagged RPS6KA2 expressed in insect expression system using Ser/Thr 06 peptide as substrate incubated for 60 mins in presence of ATP by Z'-LYTE assay
[11] = target: Serine/threonine-protein kinase Sgk2 (Homo sapiens, UniProt Q9HBY8); experiment: Inhibition of recombinant human GST-tagged SGK2 catalytic domain (54 to 427 residues) expressed in baculovirus expression system using serine/threonine-6 peptide as substrate incubated for 60 mins in presence of ATP by Z'-LYTE assay
Serine/threonine-protein kinase Sgk2, sequence (Q9HBY8 whole entry, the tested form may be a part): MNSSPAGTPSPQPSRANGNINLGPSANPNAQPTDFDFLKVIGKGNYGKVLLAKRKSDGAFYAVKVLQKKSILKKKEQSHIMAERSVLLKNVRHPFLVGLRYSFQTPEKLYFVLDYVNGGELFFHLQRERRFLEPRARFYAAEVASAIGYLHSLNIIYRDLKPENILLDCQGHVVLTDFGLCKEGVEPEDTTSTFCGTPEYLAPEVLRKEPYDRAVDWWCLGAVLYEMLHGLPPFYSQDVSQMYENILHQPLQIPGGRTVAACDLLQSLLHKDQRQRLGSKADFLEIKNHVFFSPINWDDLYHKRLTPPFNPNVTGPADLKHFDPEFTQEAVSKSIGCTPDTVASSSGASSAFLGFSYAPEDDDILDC

[12] = target: Phosphatidylinositol 4-phosphate 3-kinase C2 domain-containing subunit alpha (Homo sapiens, UniProt O00443); experiment: Inhibition of recombinant full length human N-terminal GST-tagged PIK3C2alpha catalytic domain expressed in baculovirus expression system using PI lipid as substrate incubated for 60 mins in presence of ATP by Adapta assay
[13] = target: cAMP-dependent protein kinase catalytic subunit alpha (Homo sapiens, UniProt P17612); experiment: Inhibition of recombinant human His-tagged PRKACA catalytic domain expressed in Escherichia coli using fluorophore-labeled serine/threonine-1 peptide as substrate incubated for 60 mins in presence of ATP by Z'-LYTE assay
[14] = target: Tyrosine-protein kinase ABL2 (Homo sapiens, UniProt P42684); experiment: Inhibition of recombinant full length human C-terminal His-tagged ABL2F cytoplasmic domain expressed in baculovirus expression system using tyrosine-2 peptide as substrate incubated for 60 mins in presence of ATP by Z'-LYTE assay
[15] = target: Substance-K receptor (Homo sapiens) (UniProt P21452); experiment: Inhibition of human NK2 receptor at 10 uM relative to control
[16] = target: Phosphatidylinositol 4,5-bisphosphate 3-kinase catalytic subunit gamma isoform (Homo sapiens, UniProt P48736); experiment: Inhibition of His-tagged recombinant human full length PI3K p110gamma expressed in baculovirus expression system using PIP2:PS lipid as substrate incubated for 1 hr in presence of ATP by Adapta assay
[17] = target: Testis-specific serine/threonine-protein kinase 1 (Homo sapiens, UniProt Q9BXA7); experiment: Inhibition of recombinant full length human His-tagged TSSK1 expressed in baculovirus expression system using serine/threonine-4 peptide as substrate incubated for 60 mins in presence of ATP by Z'-LYTE assay
[18] = target: Rho-associated protein kinase 1 (Homo sapiens, UniProt Q13464); experiment: Inhibition of recombinant human GST-tagged ROCK1 catalytic domain expressed in baculovirus expression system using serine/threonine-7 peptide as substrate incubated for 60 mins in presence of ATP by Z'-LYTE assay
[19] = Clearance in rat liver microsomes; format: ADME, Microsome; conditions: read-out: CLH
[20] = target: Phosphorylase b kinase gamma catalytic chain, liver/testis isoform (Homo sapiens, UniProt P15735); experiment: Inhibition of recombinant full length human N-terminal GST-tagged PHKG2 expressed in baculovirus expression system using serine/threonine-7 peptide as substrate incubated for 60 mins in presence of ATP by Z'-LYTE assay
[21] = target: Homeodomain-interacting protein kinase 4 (Homo sapiens, UniProt Q8NE63); experiment: Inhibition of recombinant full length human N-terminal GST-tagged HIPK4 expressed in baculovirus expression system using serine/threonine-18 peptide as substrate incubated for 60 mins in presence of ATP by Z'-LYTE assay
[22] = target: 5-hydroxytryptamine receptor 2A (Homo sapiens) (UniProt P28223); experiment: Displacement of [3H]ketanserin from full length human recombinant 5HT2A receptor expressed in CHOK-1 cells at 10 uM measured after 60 mins by radiometric scintillation analysis relative to control; format: cell-based
[23] = target: Mu-type opioid receptor (Homo sapiens) (UniProt P35372); experiment: Displacement of [3H]diprenorphine from full length human recombinant Mu opioid receptor expressed in CHO-K1 cells at 10 uM measured after 60 mins by radiometric scintillation analysis relative to control; format: cell-based
[24] = Half life in dog at 0.5 mg/kg, iv 1 mg/kg, po; format: ADME, organism-based, Canis lupus familiaris; conditions: in vivo
[25] = target: C-X-C chemokine receptor type 2 (Homo sapiens) (UniProt P25025); experiment: Displacement of [125I]IL-8 from recombinant full length human CXCR2 receptor expressed in CHOK1 cells at 10 uM measured after 60 mins by radiometric scintillation analysis relative to control; format: cell-based; conditions: CHO-K1

SMILES: C[C@@H]1C[C@H]1C(=O)N1CCN(c2cnc(C#N)c(-c3cnn(C)c3)n2)C[C@H]1C
- pIC50 [1]: < 4.00
- pIC50 [2]: < 4.00
- pIC50 [3]: < 4.00
- pIC50 [4]: < 4.00
- pIC50 (Ephrin type-A receptor 8): < 4.00
- pIC50 [5]: < 4.00
- pIC50 [6]: < 4.00
- pIC50 [7]: < 4.00
- inhibition [8]: 11%
- inhibition [9]: 19%
- pIC50 [10]: < 4.00
- pIC50 [11]: < 4.00
- pIC50 [12]: < 4.00
- pIC50 [13]: < 4.00
- pIC50 [14]: < 4.00
- inhibition [15]: 1%
- pIC50 [16]: 6.02
- pIC50 [17]: < 4.00
- pIC50 [18]: < 4.00
- CLint scaled [19]: 47 mL/min/kg
- pIC50 [20]: < 4.00
- pIC50 [21]: < 4.00
- inhibition [22]: 6%
- inhibition [23]: 5%
- half-life [24]: 2.9 h
- inhibition [25]: 5%
